Assay results as given in ChEMBL document CHEMBL6078680, “Improving the Stability and Anti-Infective Activity of Sea Turtle AMPs Using Multiple Structural Modification Strategies” (J Med Chem, 2024).
Activity calls are given as the source filed them. The calls are words filed in the database; no cut-off is given here. Starred links: 1 amine or outer side, 2 acyl side, 3 side chain; linkers in the order of their positions; H or OH if unused. Positions of bridges follow the written chain, without caps; N, C: chain ends. Non-standard residues stand in square brackets, D forms with d. Residues, ends and D or L forms follow the SMILES beside them. X1 = C[C@@](CCCCC=[*:3])(N[*:1])C(=O)[*:2]; hArg = N=C(N)NCCCC[C@H](N)C(=O)O

Legend:
Staphylococcus aureus [1] = assay: Antimicrobial activity against Staphylococcus aureus CMCC 26003 at 5 times MIC measured at 180 mins; format: functional, organism-based
HaCaT = assay: Cytotoxicity against human HaCaT cells assessed as survival rate at 100 microg/ml; format: functional; settings: read-out: Survival
[2] = Acute toxicity in BALB/c mouse assessed as effect on BUN level at 10 mg/kg, iv measured for 24 hrs; format: organism-based; settings: in vivo
Peritoneal macrophage [3] = assay: Antiinflammatory activity in mouse Peritoneal macrophage cells assessed as inhibition of LPS-induced IL-6 production at 20 microg/ml incubated for 6 hrs by ELISA analysis; format: functional, cell-based; settings: dose 20.0 µg/ml
Staphylococcus aureus [4] = assay: Antimicrobial activity against Staphylococcus aureus CMCC 26003 measured at 8 hrs in presence of mouse serum; format: functional, organism-based
Peritoneal macrophage [5] = assay: Antiinflammatory activity in mouse Peritoneal macrophage cells assessed as inhibition of LPS-induced TNF-alpha production at 20 microg/ml incubated for 6 hrs by ELISA analysis; format: functional, cell-based; settings: dose 20.0 µg/ml
[6] = Hemolytic activity at human Erythrocyte assessed as hemolysis at 100 microg/ml; format: toxicity, cell-based; settings: erythrocytes, at 100 µg/mL, read-out: Activity
Peritoneal macrophage [7] = assay: Cytotoxicity against mouse Peritoneal macrophage cells assessed as survival rate at 100 microg/ml; format: functional; settings: read-out: Survival
Peritoneal macrophage [8] = assay: Antiinflammatory activity in mouse Peritoneal macrophage cells assessed as inhibition of LPS-induced IL-6 production my measuring fold change at 20 microg/ml incubated for 6 hrs by ELISA analysis; format: functional; settings: dose 20 µg/ml
Escherichia coli [9] = assay: Antimicrobial activity against Escherichia coli ATCC 25922 measured at 8 hrs in presence of mouse serum; format: functional, organism-based
Staphylococcus aureus [10] = assay: Antibiofilm activity against Staphylococcus aureus CMCC 26003 assessed as biofilm eradication at 0.5 to 2 times MIC incubated for 24 hrs by crystal violet staining based analysis; format: functional
Staphylococcus aureus [11] = assay: Antipersister-activity against Staphylococcus aureus CMCC 26003 assessed as elimination of persister cells at 50 times MIC preincubated adherent persistent cells with colistin incubation for 24 hrs; format: functional
Acinetobacter baumannii [12] = assay: Antibiofilm activity against Acinetobacter baumannii ATCC 19606 assessed as inhibition of biofilm formation at 0.5 times MIC incubated for 48 hrs by crystal violet staining based analysis; format: functional
Trypsin [13] = target: T1, Trypsin (Homo sapiens, UniProt P07477+P07478+P35030); assay: Stability of compound assessed as trypsin (unknown origin) mediated drug degradation […] measured at 24 hrs by RP-HPLC analysis; format: ADME, protein assay; settings: read-out: Activity
Trypsin [14] = target: T1, Trypsin; assay: Stability of compound assessed as trypsin (unknown origin) mediated drug degradation […] measured after 24 hrs by RP-HPLC analysis; format: ADME, protein assay; settings: read-out: Activity
Salmonella enteritidis = assay: Antimicrobial activity against Salmonella enterica subsp. enterica serovar Enteritidis ATCC 14028 assessed as reduction in microbial growth incubated for 18 hrs by broth microdilution method; format: functional
Staphylococcus aureus [15] = assay: Antimicrobial activity against Staphylococcus aureus ATCC 43300 assessed as reduction in microbial growth incubated for 18 hrs by broth microdilution method; format: functional
Clostridium perfringens = assay: Antimicrobial activity against Clostridium perfringens ATCC 13124 assessed as reduction in microbial growth incubated for 18 hrs by broth microdilution method; format: functional
Staphylococcus aureus [16] = assay: Antimicrobial activity against Staphylococcus aureus CMCC 26003 at 5 times MIC by time kill assay; format: functional, organism-based; settings: time 180.0 min
Escherichia coli [17] = assay: Antimicrobial activity against Escherichia coli ATCC 25922 assessed as reduction in microbial growth incubated for 18 hrs by broth microdilution method; format: functional
Pseudomonas aeruginosa = assay: Antimicrobial activity against Pseudomonas aeruginosa CMCC10104 assessed as reduction in microbial growth incubated for 18 hrs by broth microdilution method; format: functional
Enterococcus faecalis = assay: Antimicrobial activity against Enterococcus faecalis ATCC 29217 assessed as reduction in microbial growth incubated for 18 hrs by broth microdilution method; format: functional
Enterococcus faecium = assay: Antimicrobial activity against Enterococcus faecium 34 assessed as reduction in microbial growth incubated for 18 hrs by broth microdilution method; format: functional
Staphylococcus aureus [18] = assay: Antimicrobial activity against Staphylococcus aureus CMCC 26003 assessed as reduction in microbial growth incubated for 18 hrs by broth microdilution method; format: functional
[19] = test system: Staphylococcus epidermidis; assay: Antimicrobial activity against Staphylococcus epidermidis assessed as reduction in microbial growth incubated for 18 hrs by broth microdilution method; format: functional
Acinetobacter baumannii [20] = assay: Antimicrobial activity against Acinetobacter baumannii ATCC19606 assessed as reduction in microbial growth incubated for 18 hrs by broth microdilution method; format: functional
Escherichia coli [21] = assay: Antimicrobial activity against Escherichia coli CMCC44102 assessed as reduction in microbial growth incubated for 18 hrs by broth microdilution method; format: functional
Staphylococcus aureus [22] = assay: Antimicrobial activity against Staphylococcus aureus 08032706 assessed as reduction in microbial growth incubated for 18 hrs by broth microdilution method; format: functional

| Compound | Activity (Staphylococcus aureus [1]) | viability at 100 µg/mL (HaCaT) [%] | Activity (Peritoneal macrophage [3]) | Activity (Staphylococcus aureus [4]) | Activity (Peritoneal macrophage [5]) | hemolysis at 100 microg/ml [6] [%] | viability at 100 µg/mL (Peritoneal macrophage [7]) [%] | further results |
| --- | --- | --- | --- | --- | --- | --- | --- | --- |
| CC[C@H](C)[C@H](NC(=O)[C@H](CCCNC(=N)N)NC(=O)[C@H](CO)NC(=O)[C@H](Cc1c[nH]cn1)NC(=O)[C@H](CCCNC(=N)N)NC(=O)[C@@H]1CSSC[C@H](NC(=O)[C@H](CCCCN)NC(=O)[C@@H](N)Cc2ccccc2)C(=O)N[C@@H](CCCCN)C(=O)N[C@@H](C(C)C)C(=O)N[C@@H](CCCNC(=N)N)C(=O)N[C@@H](CCCCN)C(=O)N[C@@H](CCC(N)=O)C(=O)N[C@@H](CC(C)C)C(=O)NCC(=O)N[C@@H](CCCNC(=N)N)C(=O)N[C@@H](C(C)C)C(=O)N[C@@H](CC(C)C)C(=O)N1)C(=O)N[C@H](C(=O)N[C@H](C(=O)NCC(=O)NCC(=O)N[C@@H](CCCNC(=N)N)C(=O)N[C@@H](CCSC)C(=O)N[C@@H](CCCNC(=N)N)C(=O)N[C@@H](Cc1ccccc1)C(=O)O)C(C)C)[C@@H](C)O (H-FKCKVRKQLGRVLCRHSRITVGGRMRF-OH; disulfide 3-14) | inactive | > 80 | Active | inactive | Active | < 5 | > 80 | Activity [2]: Non-toxic |
| CC[C@H](C)[C@H](NC(=O)[C@H](CCCNC(=N)N)NC(=O)[C@H](CO)NC(=O)[C@H](Cc1c[nH]cn1)NC(=O)[C@H](CCCNC(=N)N)NC(=O)[C@H](CC(C)C)NC(=O)[C@@H](NC(=O)[C@H](CCCNC(=N)N)NC(=O)CNC(=O)[C@H](CC(C)C)NC(=O)[C@H](CCC(N)=O)NC(=O)[C@H](CCCCN)NC(=O)[C@]1(C)CCCC/C=C\CCCC[C@](C)(N)C(=O)N[C@@H](CCCCN)C(=O)N[C@@H](CCCCN)C(=O)N[C@@H](C(C)C)C(=O)N1)C(C)C)C(=O)N[C@H](C(=O)N[C@H](C(=O)NCC(=O)NCC(=O)N[C@@H](CCCNC(=N)N)C(=O)N[C@@H](CCSC)C(=O)N[C@@H](CCCNC(=N)N)C(=O)N[C@@H](Cc1ccccc1)C(=O)O)C(C)C)[C@@H](C)O (H-[X1]KKV[X1]KQLGRVLRHSRITVGGRMRF-OH; staple (Z) 1-5) | inactive | – | Active | – | Active | < 5 | – | fold change (FC) (Peritoneal macrophage [8]): 2 |
| CC[C@H](C)[C@@H]1NC(=O)[C@H](CCCNC(=N)N)NC(=O)[C@H](CO)NC(=O)[C@@H](NC(=O)[C@H](Cc2c[nH]cn2)NC(=O)[C@H](CCCNC(=N)N)NC(=O)[C@H](CC(C)C)NC(=O)[C@@H](NC(=O)[C@H](CCCNC(=N)N)NC(=O)CNC(=O)[C@H](CC(C)C)NC(=O)[C@H](CCC(N)=O)NC(=O)[C@H](CCCCN)NC(=O)[C@H](CCCNC(=N)N)NC(=O)[C@@H](NC(=O)[C@H](CCCCN)NC(=O)[C@H](CCCCN)NC(=O)[C@@H](N)Cc2ccccc2)C(C)C)C(C)C)CSSC[C@@H](C(=O)O)NC(=O)[C@H](Cc2ccccc2)NC(=O)[C@H](CCCNC(=N)N)NC(=O)[C@H](CCSC)NC(=O)[C@H](CCCNC(=N)N)NC(=O)CNC(=O)CNC(=O)[C@H](C(C)C)NC(=O)[C@H]([C@@H](C)O)NC1=O (H-FKKVRKQLGRVLRHCSRITVGGRMRFC-OH; disulfide 15-27) | inactive | > 80 | Active | inactive | Active | < 5 | > 80 | Activity (Escherichia coli [9]): inactive |
| CC[C@@H](C)[C@@H](NC(=O)[C@@H](CCCNC(=N)N)NC(=O)[C@@H](CO)NC(=O)[C@@H](Cc1c[nH]cn1)NC(=O)[C@@H](CCCNC(=N)N)NC(=O)[C@@H](CC(C)C)NC(=O)[C@H](NC(=O)[C@@H](CCCNC(=N)N)NC(=O)CNC(=O)[C@@H](CC(C)C)NC(=O)[C@@H](CCC(N)=O)NC(=O)[C@@H](CCCCN)NC(=O)[C@@H](CCCNC(=N)N)NC(=O)[C@H](NC(=O)[C@@H](CCCCN)NC(=O)[C@@H](CCCCN)NC(=O)[C@H](N)Cc1ccccc1)C(C)C)C(C)C)C(=O)N[C@@H](C(=O)N[C@@H](C(=O)NCC(=O)NCC(=O)N[C@H](CCCNC(=N)N)C(=O)N[C@H](CCSC)C(=O)N[C@H](CCCNC(=N)N)C(=O)N[C@H](Cc1ccccc1)C(=O)O)C(C)C)[C@H](C)O | inactive | – | Active | – | Active | < 5 | – | Activity (Staphylococcus aureus [10]): 20%; Activity (Staphylococcus aureus [11]): 50%; inhibition (INH) (Acinetobacter baumannii [12]): 10%; metabolised at 24 h (Trypsin [13]): < 60% |
| CC[C@H](C)[C@H](NC(=O)[C@H](CCCCNC(=N)N)NC(=O)[C@H](CO)NC(=O)[C@H](Cc1c[nH]cn1)NC(=O)[C@H](CCCCNC(=N)N)NC(=O)[C@H](CC(C)C)NC(=O)[C@@H](NC(=O)[C@H](CCCCNC(=N)N)NC(=O)CNC(=O)[C@H](CC(C)C)NC(=O)[C@H](CCC(N)=O)NC(=O)[C@H](CCCCNC(=N)N)NC(=O)[C@H](CCCCNC(=N)N)NC(=O)[C@@H](NC(=O)[C@H](CCCCNC(=N)N)NC(=O)[C@H](CCCCNC(=N)N)NC(=O)[C@@H](N)Cc1ccccc1)C(C)C)C(C)C)C(=O)N[C@H](C(=O)N[C@H](C(=O)NCC(=O)NCC(=O)N[C@@H](CCCCNC(=N)N)C(=O)N[C@@H](CCSC)C(=O)N[C@@H](CCCCNC(=N)N)C(=O)N[C@@H](Cc1ccccc1)C(=O)O)C(C)C)[C@@H](C)O (H-F[hArg][hArg]V[hArg][hArg]QLG[hArg]VL[hArg]HS[hArg]ITVGG[hArg]M[hArg]F-OH) | inactive | – | Active | – | Active | < 5 | – | metabolised at 24 h (Trypsin [14]): ~20% |
| CC1(C)S[C@@H]2[C@H](NC(=O)[C@H](N)c3ccccc3)C(=O)N2[C@H]1C(=O)O [AMPICILLIN] | – | – | – | – | – | – | – | MIC (Salmonella enteritidis): 1.17 µg/mL; MIC (Staphylococcus aureus [15]): 9.38 µg/mL; MIC (Clostridium perfringens): 2.34 µg/mL; AC30 (Staphylococcus aureus [16]): Active; MIC (Escherichia coli [17]): 2.34 µg/mL; MIC (Pseudomonas aeruginosa): > 100 µg/mL; MIC (Enterococcus faecalis): < 0.78 µg/mL; MIC (Enterococcus faecium): < 0.78 µg/mL; MIC (Staphylococcus aureus [18]): < 0.78 µg/mL; MIC [19]: 2.34 µg/mL; MIC (Acinetobacter baumannii [20]): > 100 µg/mL; MIC (Escherichia coli [21]): 2.34 µg/mL; MIC (Staphylococcus aureus [22]): < 0.78 µg/mL |
